Test results as given in the supplement of paper PMC10627819.

Assays:
Assay in all cases: fitness (endpoint OD595 vs no drug) (fraction); higher = more growth
[1] = tested on: B. subtilis 168
How it was run: (§1)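 Volumes were 30 µl per well, or 55 µl for S. pneumoniae, in 384-well plates inoculated at OD595 0.01. Media were TSB, LB Lennox or CY at 37 °C, and OD595 was read every 30 min for 14 h with first-reading background subtraction. Fitness is the ratio of optical density at stationary-phase entry to the robust mean of no-drug controls. That ratio is capped at 1.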

[2] = tested on: S. aureus Newman; details: one replicate
How it was run: as §1

[3] = tested on: S. pneumoniae D39V
How it was run: as §1

O=C(O)[C@H]1/C(=C/CO)O[C@@H]2CC(=O)N21 [Clavulanic acid] + COc1c(N2C[C@@H]3CCCN[C@@H]3C2)c(F)cc2c(=O)c(C(=O)O)cn(C3CC3)c12 [Moxifloxacin]
Details | fitness
[1], first compound 1.5 µg/mL, partner 0.0312 µg/mL | 0.0422
[1], first compound 1.5 µg/mL, partner 0.0625 µg/mL | 0.0379
[1], first compound 1.5 µg/mL, partner 0.125 µg/mL | 0.0596
[1], first compound 1.5 µg/mL, partner 2 µg/mL | 0.0304
[1], first compound 1.5 µg/mL, partner 4 µg/mL | 0.0307
[1], first compound 1.5 µg/mL, partner 8 µg/mL | 0.0071
[1], first compound 3 µg/mL, partner 0.0312 µg/mL | 0.0399
[1], first compound 3 µg/mL, partner 0.0625 µg/mL | 0.0399
[1], first compound 3 µg/mL, partner 0.125 µg/mL | 0.0536
[1], first compound 3 µg/mL, partner 2 µg/mL | 0.0289
[1], first compound 3 µg/mL, partner 4 µg/mL | 0.0394
[1], first compound 3 µg/mL, partner 8 µg/mL | 0.0171
[1], first compound 6 µg/mL, partner 0.0312 µg/mL | 0.0317
[1], first compound 6 µg/mL, partner 0.0625 µg/mL | 0.0196
[1], first compound 6 µg/mL, partner 0.125 µg/mL | 0.0562
[1], first compound 6 µg/mL, partner 2 µg/mL | 0.0285
[1], first compound 6 µg/mL, partner 4 µg/mL | 0.0252
[1], first compound 6 µg/mL, partner 8 µg/mL | 0.0156
[2], first compound 0.03125 µg/mL, partner 0.0075 µg/mL | 0.823
[2], first compound 0.03125 µg/mL, partner 0.015 µg/mL | 0.742
[2], first compound 0.03125 µg/mL, partner 0.03 µg/mL | 0.393
[2], first compound 0.0625 µg/mL, partner 0.0075 µg/mL | 0.786
[2], first compound 0.0625 µg/mL, partner 0.015 µg/mL | 0.693
[2], first compound 0.0625 µg/mL, partner 0.03 µg/mL | 0.312
[2], first compound 0.125 µg/mL, partner 0.0075 µg/mL | 0.779
[2], first compound 0.125 µg/mL, partner 0.015 µg/mL | 0.699
[2], first compound 0.125 µg/mL, partner 0.03 µg/mL | 0.417
[3], first compound 0.5 µg/mL, partner 0.005 µg/mL | 0.952
[3], first compound 0.5 µg/mL, partner 0.01 µg/mL | 0.982
[3], first compound 0.5 µg/mL, partner 0.02 µg/mL | 0.896
[3], first compound 0.5 µg/mL, partner 0.0312 µg/mL | 0.0616
[3], first compound 0.5 µg/mL, partner 0.0625 µg/mL | 0.0525
[3], first compound 0.5 µg/mL, partner 0.125 µg/mL | 0.0269
[3], first compound 1 µg/mL, partner 0.005 µg/mL | 0.94
[3], first compound 1 µg/mL, partner 0.01 µg/mL | 0.964
[3], first compound 1 µg/mL, partner 0.02 µg/mL | 0.908
[3], first compound 1 µg/mL, partner 0.0312 µg/mL | 0.198
[3], first compound 1 µg/mL, partner 0.0625 µg/mL | 0.173
[3], first compound 1 µg/mL, partner 0.125 µg/mL | 0.189
[3], first compound 2 µg/mL, partner 0.005 µg/mL | 0.891
[3], first compound 2 µg/mL, partner 0.01 µg/mL | 0.939
[3], first compound 2 µg/mL, partner 0.02 µg/mL | 0.844
[3], first compound 2 µg/mL, partner 0.0312 µg/mL | 0.0371
[3], first compound 2 µg/mL, partner 0.0625 µg/mL | 0.0368
[3], first compound 2 µg/mL, partner 0.125 µg/mL | 0.0371

O=C(O)[C@H]1/C(=C/CO)O[C@@H]2CC(=O)N21 [Clavulanic acid] + COc1ccc(C[C@H](N)C(=O)N[C@H]2[C@@H](O)[C@H](n3cnc4c(N(C)C)ncnc43)O[C@@H]2CO)cc1 [Puromycin]
Details | fitness
[1], first compound 1.5 µg/mL, partner 0.39 µg/mL | 0.919
[1], first compound 1.5 µg/mL, partner 0.78 µg/mL | 0.995
[1], first compound 1.5 µg/mL, partner 1.56 µg/mL | 0.888
[1], first compound 3 µg/mL, partner 0.39 µg/mL | 0.872
[1], first compound 3 µg/mL, partner 0.78 µg/mL | 0.871
[1], first compound 3 µg/mL, partner 1.56 µg/mL | 0.851
[1], first compound 6 µg/mL, partner 0.39 µg/mL | 0.787
[1], first compound 6 µg/mL, partner 0.78 µg/mL | 0.76
[1], first compound 6 µg/mL, partner 1.56 µg/mL | 0.775
[2], first compound 0.03125 µg/mL, partner 0.39 µg/mL | 0.952
[2], first compound 0.03125 µg/mL, partner 0.78 µg/mL | 0.91
[2], first compound 0.03125 µg/mL, partner 1.56 µg/mL | ≥ 1
[2], first compound 0.0625 µg/mL, partner 0.39 µg/mL | ≥ 1
[2], first compound 0.0625 µg/mL, partner 0.78 µg/mL | ≥ 1
[2], first compound 0.0625 µg/mL, partner 1.56 µg/mL | 0.99
[2], first compound 0.125 µg/mL, partner 0.39 µg/mL | 0.89
[2], first compound 0.125 µg/mL, partner 0.78 µg/mL | 0.901
[2], first compound 0.125 µg/mL, partner 1.56 µg/mL | 0.894
[3], first compound 0.5 µg/mL, partner 1 µg/mL | ≥ 1
[3], first compound 0.5 µg/mL, partner 2 µg/mL | 0.931
[3], first compound 1 µg/mL, partner 1 µg/mL | 0.937
[3], first compound 1 µg/mL, partner 2 µg/mL | 0.891
[3], first compound 1 µg/mL, partner 4 µg/mL | 0.528
[3], first compound 2 µg/mL, partner 1 µg/mL | 0.72
[3], first compound 2 µg/mL, partner 2 µg/mL | 0.793

O=C(O)[C@H]1/C(=C/CO)O[C@@H]2CC(=O)N21 [Clavulanic acid] + COc1cccc2c1C(=O)c1c(O)c3c(c(O)c1C2=O)C[C@@](O)(C(=O)CO)C[C@@H]3O[C@H]1C[C@H](N)[C@H](O)[C@H](C)O1 [Doxorubicin]
Details | fitness
[1], first compound 1.5 µg/mL, partner 0.625 µg/mL | 0.911
[1], first compound 1.5 µg/mL, partner 1.25 µg/mL | 0.9
[1], first compound 1.5 µg/mL, partner 2.5 µg/mL | 0.696
[1], first compound 3 µg/mL, partner 0.625 µg/mL | 0.849
[1], first compound 3 µg/mL, partner 1.25 µg/mL | 0.88
[1], first compound 3 µg/mL, partner 2.5 µg/mL | 0.625
[1], first compound 6 µg/mL, partner 0.625 µg/mL | 0.792
[1], first compound 6 µg/mL, partner 1.25 µg/mL | 0.736
[2], first compound 0.03125 µg/mL, partner 0.625 µg/mL | 0.979
[2], first compound 0.03125 µg/mL, partner 1.25 µg/mL | 0.905
[2], first compound 0.03125 µg/mL, partner 2.5 µg/mL | 0.739
[2], first compound 0.0625 µg/mL, partner 0.625 µg/mL | 0.984
[2], first compound 0.0625 µg/mL, partner 1.25 µg/mL | 0.883
[2], first compound 0.0625 µg/mL, partner 2.5 µg/mL | 0.755
[2], first compound 0.125 µg/mL, partner 0.625 µg/mL | 0.882
[2], first compound 0.125 µg/mL, partner 1.25 µg/mL | 0.803
[2], first compound 0.125 µg/mL, partner 2.5 µg/mL | 0.753
[3], first compound 0.5 µg/mL, partner 0.25 µg/mL | 0.933
[3], first compound 0.5 µg/mL, partner 0.5 µg/mL | 0.954
[3], first compound 0.5 µg/mL, partner 1 µg/mL | 0.838
[3], first compound 1 µg/mL, partner 0.25 µg/mL | 0.885
[3], first compound 1 µg/mL, partner 0.5 µg/mL | 0.853
[3], first compound 1 µg/mL, partner 1 µg/mL | 0.813
[3], first compound 2 µg/mL, partner 1 µg/mL | 0.706

O=C(O)[C@H]1/C(=C/CO)O[C@@H]2CC(=O)N21 [Clavulanic acid] + C[C@@H]1O[C@@H]1P(=O)(O)O [Fosfomycin]
Details | fitness
[1], first compound 1.5 µg/mL, partner 1.562 µg/mL | 0.691
[1], first compound 1.5 µg/mL, partner 3.124 µg/mL | 0.564
[1], first compound 1.5 µg/mL, partner 6.248 µg/mL | 0.478
[1], first compound 3 µg/mL, partner 1.562 µg/mL | 0.644
[1], first compound 3 µg/mL, partner 3.124 µg/mL | 0.529
[1], first compound 3 µg/mL, partner 6.248 µg/mL | 0.416
[1], first compound 6 µg/mL, partner 1.562 µg/mL | 0.559
[1], first compound 6 µg/mL, partner 3.124 µg/mL | 0.453
[1], first compound 6 µg/mL, partner 6.248 µg/mL | 0.301
[2], first compound 0.03125 µg/mL, partner 0.781 µg/mL | 0.96
[2], first compound 0.03125 µg/mL, partner 1.562 µg/mL | 0.679
[2], first compound 0.03125 µg/mL, partner 3.124 µg/mL | 0.396
[2], first compound 0.0625 µg/mL, partner 0.781 µg/mL | 0.885
[2], first compound 0.0625 µg/mL, partner 1.562 µg/mL | 0.626
[2], first compound 0.0625 µg/mL, partner 3.124 µg/mL | 0.382
[2], first compound 0.125 µg/mL, partner 0.781 µg/mL | 0.841
[2], first compound 0.125 µg/mL, partner 1.562 µg/mL | 0.598
[2], first compound 0.125 µg/mL, partner 3.124 µg/mL | 0.349
[3], first compound 0.5 µg/mL, partner 1.25 µg/mL | 0.953
[3], first compound 0.5 µg/mL, partner 2.5 µg/mL | 0.933
[3], first compound 1 µg/mL, partner 1.25 µg/mL | 0.905
[3], first compound 1 µg/mL, partner 2.5 µg/mL | 0.872
[3], first compound 2 µg/mL, partner 1.25 µg/mL | 0.821
[3], first compound 2 µg/mL, partner 2.5 µg/mL | 0.802

O=C(O)[C@H]1/C(=C/CO)O[C@@H]2CC(=O)N21 [Clavulanic acid] + C[n+]1ccc(-c2cc[n+](C)cc2)cc1 [Paraquat]
fitness
Details | partner 1.25 µg/mL | partner 1.5 µg/mL | partner 2.5 µg/mL | partner 3 µg/mL | partner 5 µg/mL | partner 6 µg/mL
[1], first compound 1.5 µg/mL | 0.93 | – | 0.96 | – | 0.835 | –
[1], first compound 3 µg/mL | 0.87 | – | 0.812 | – | 0.77 | –
[1], first compound 6 µg/mL | 0.773 | – | 0.728 | – | 0.672 | –
[2], first compound 0.03125 µg/mL | 0.952 | – | 0.98 | – | 0.99 | –
[2], first compound 0.0625 µg/mL | 0.99 | – | 0.983 | – | ≥ 1 | –
[2], first compound 0.125 µg/mL | 0.843 | – | 0.943 | – | 0.89 | –
[3], first compound 0.5 µg/mL | – | 0.99 | – | ≥ 1 | – | 0.991
[3], first compound 1 µg/mL | – | 0.973 | – | 0.962 | – | 0.941
[3], first compound 2 µg/mL | – | 0.875 | – | 0.896 | – | 0.863

O=C(O)[C@H]1/C(=C/CO)O[C@@H]2CC(=O)N21 [Clavulanic acid] + Cc1cc(NS(=O)(=O)c2ccc(N)cc2)no1 [Sulfamethoxazol]
[1], partner 0.5 µg/mL, one replicate
Details | fitness
first compound 1.5 µg/mL | 0.974
first compound 3 µg/mL | 0.903
first compound 6 µg/mL | 0.952

fitness
Details | partner 1 µg/mL | partner 2 µg/mL | partner 4 µg/mL
[1], first compound 1.5 µg/mL | 0.853 | 0.883 | 0.93
[1], first compound 3 µg/mL | 0.816 | 0.839 | 0.943
[1], first compound 6 µg/mL | 0.704 | 0.733 | 0.798
[2], first compound 0.03125 µg/mL | 0.994 | 0.974 | 0.983
[2], first compound 0.0625 µg/mL | ≥ 1 | ≥ 1 | ≥ 1
[2], first compound 0.125 µg/mL | 0.951 | 0.929 | 0.929
[3], first compound 0.5 µg/mL | 0.985 | 0.982 | 0.949
[3], first compound 1 µg/mL | 0.914 | 0.93 | 0.856
[3], first compound 2 µg/mL | 0.836 | 0.904 | 0.786
